Literature values in patent publication US20030162803A1, “Anhydrovinblastine for the treatment of cancer” (priority 1997, published 2003).

Conditions: triphasic elimination profile; cited from earlier work

CC[C@]1(O)C[C@@H]2CN(CCc3c([nH]c4ccccc34)[C@@](C(=O)OC)(c3cc4c(cc3OC)N(C)[C@H]3[C@@](O)(C(=O)OC)[C@H](OC(C)=O)[C@]5(CC)C=CCN6CC[C@]43[C@@H]65)C2)C1 [Vinblastine]
initial alpha half-life: less than 5 minutes
